Measured values as given in patent publication US8507464B2, “Phosphoramidate alkylator prodrugs” (Threshold Pharmaceuticals, Inc., priority 2005, dated 2013).
Like-named read-outs stand apart in the source and are kept apart here.

Assays:
PC3 cells [1] = assay: Antiproliferation assay (Alamar Blue), anoxia vs air; details: Homo sapiens, PC-3, 2 h
HT29 monolayer = assay: Clonogenic survival of monolayer cells (Example 35); type: cell-based; details: Homo sapiens
[2] = Preliminary toxicity in mice (Example 56); type: in vivo
Excerpt: It is recognized that efficacious molecules for treatment of human diseases including cancer may be toxic at doses near or sometime much greater than doses necessary to achieve beneficial effects. To determine appropriate dose and route of administering such a compound, it is necessary to understand its toxicity. Routinely, initial approaches to determining the toxic dose involve the use of rodents such as mice to provide preliminary data that might support the design of similar studies in larger animals and humans. Test compounds (Compounds 24, 25 and 36) were tested in mice as preliminary experiments for determining doses to be used in larger animals. […] These doses selected represent an approximation of doses that might be used in larger animals such as rats and dogs for the purpose of confirming that such toxicities exist and for predicting if renal function should be measured in humans.

[3] = logP (partitioning between octanol and water); type: physicochemical; details: read-out: logP
Excerpt: As used herein “LogP” means a measure of lipophilicity of a substance determined based on the partitioning of the substance betwen octanol and water.

NCI-H460 cells = assay: Clonogenic assay - oxygen dependence; details: Homo sapiens
PC3 cells [4] = assay: Cell cycle distribution (flow cytometry); type: cell-based, human
Description: (§1) Cells ([…], PC3 and HT29) were seeded at a density of 1.0×10^6 cells/3 ml medium per 60 mm dish. After 24 h attachment, cells were exposed to Compound 25 at the indicated concentrations for 2 h under either normoxia (air) or anoxia (nitrogen). Cells were washed twice, and incubated for an additional 22 h in fresh medium. Cells were trypsinized, centrifuged, and fixed in 75% ethanol at least for 24 h at −20° C. Cell cycle distribution was determined using Guava Cell Cycle reagent (Guava, Hayward, Calif.) by flow cytometry (Guava, Hayward, Calif.).

HT29 cells = assay: Cell cycle distribution (flow cytometry); type: cell-based, human
Description: as §1

ACHN cells = assay: Antiproliferation assay (Alamar Blue), anoxia vs air; details: Homo sapiens, 2 h
HCT116 cells = assay: Multilayered cell culture (MCC) assay, inhibition of BrdU incorporation; type: cell-based; details: for IC50: Homo sapiens
Description: MCCs were incubated with oxygenated media (20% O2 & 5% O2) or hypoxic media (approximately 0% O2) and the test compound was exposed from one side (exposed surface, normoxic side) while the other side was temporarily closed off (far side, hypoxic side). When MCC's are incubated in media at 20% O2 or 5% O2 a gradient in oxygen develops from the surface exposed to the media towards the far surface of the culture. The furthest 50 μm of tissue becomes depleted of oxygen. The extent of O2 depletion is greater with 5% than the 20% O2 gassed media; incubation with 5% O2 reflects the in vivo situation most closely. Incubating MCCs with media at 0% O2 models perfusion limited hypoxia, where tumor blood vessels become completely depleted of oxygen and test compound must penetrate extensive distances to reach all cells. This situation therefore poses a greater barrier to drug penetration, if binding of activated drug acts to limit its penetration.
MCC based experiments were carried out with media gassed with 0, 5 or 20% O2 for 45 minutes prior to and during incubation with the test compound. HCT116 cells were grown to a thickness of 150 μm on a solid support and one side of the culture was clamped off to develop diffusion limited hypoxia. […] The cultures were incubated for a second hour in fresh media at 20% O2 and removed from the apparatus and returned to a normal growth chamber, where media flows over both sides of the MCC. Cultures were incubated for 24 hours prior to BrdUrd labeling and subsequent cryosectioning. BrdUrd labeling on the exposed and far sides of the MCC were analyzed using immunohistochemical staining, microscope imaging and computer image analysis to assess the effect of Compound 25 on cell proliferation.

Irs1SF = assay: Clonogenic survival - DNA mutant repair cells; details: Cricetulus griseus

Cn1c(COP(=O)(NCCBr)NCCBr)cnc1[N+](=O)[O-] [Compound 25]
IC50 (PC3 cells [1]; read-out: IC50 PC3 Air): > 100000 nM
IC50 (PC3 cells [1]; read-out: IC50 PC3 Anoxia): 600 nM
IC90 (HT29 monolayer; HT-29, read-out: IC90 HT29 Monolayer 0.6% O2): 3000 nM
IC90 (HT29 monolayer; HT-29, read-out: IC90 HT29 Monolayer Air): 40000 nM
IC90 (HT29 monolayer; HT-29, read-out: IC90 HT29 Monolayer N2): 200 nM
white blood cells [2]: Transient reductions in white blood cells
toxicity at 300 mg/kg single dose ([2]; 300 mg/kg single dose): renal toxicities such as tubular necrosis and protein spillage into the urine
toxicity at lower doses (100 and 200 mg/kg) ([2]; 100 and 200 mg/kg): little toxicity
logP [3]: < 0
IC90 (NCI-H460 cells; NCI-H460, read-out: IC90 H460 0.1% O2): 400 nM
IC90 (NCI-H460 cells; NCI-H460, read-out: IC90 H460 0.6% O2): 5000 nM
IC90 (NCI-H460 cells; NCI-H460, read-out: IC90 H460 Air): 30000 nM
IC90 (NCI-H460 cells; NCI-H460, read-out: IC90 H460 N2): 100 nM
Cell cycle G0/G1 (PC3 cells [4]; 0.0005 μM, Air): 55
Cell cycle G2/M (PC3 cells [4]; 0.0005 μM, Air): 32
Cell cycle S (PC3 cells [4]; 0.0005 μM, Air): 12
Cell cycle G0/G1 (PC3 cells [4]; 0.0005 μM, Nitrogen): 59
Cell cycle G2/M (PC3 cells [4]; 0.0005 μM, Nitrogen): 31
Cell cycle S (PC3 cells [4]; 0.0005 μM, Nitrogen): 10
Cell cycle G0/G1 (PC3 cells [4]; 0.005 μM, Air): 52
Cell cycle G2/M (PC3 cells [4]; 0.005 μM, Air): 34
Cell cycle S (PC3 cells [4]; 0.005 μM, Air): 13
Cell cycle G0/G1 (PC3 cells [4]; 0.005 μM, Nitrogen): 56
Cell cycle G2/M (PC3 cells [4]; 0.005 μM, Nitrogen): 32
Cell cycle S (PC3 cells [4]; 0.005 μM, Nitrogen): 11
Cell cycle G0/G1 (PC3 cells [4]; 0.05 μM, Air): 55
Cell cycle G2/M (PC3 cells [4]; 0.05 μM, Air): 33
Cell cycle S (PC3 cells [4]; 0.05 μM, Air): 12
Cell cycle G0/G1 (PC3 cells [4]; 0.05 μM, Nitrogen): 43
Cell cycle G2/M (PC3 cells [4]; 0.05 μM, Nitrogen): 44
Cell cycle S (PC3 cells [4]; 0.05 μM, Nitrogen): 12
Cell cycle G0/G1 (PC3 cells [4]; 0.5 μM, Air): 55
Cell cycle G2/M (PC3 cells [4]; 0.5 μM, Air): 32
Cell cycle S (PC3 cells [4]; 0.5 μM, Air): 13
Cell cycle G0/G1 (PC3 cells [4]; 0.5 μM, Nitrogen): 21
Cell cycle G2/M (PC3 cells [4]; 0.5 μM, Nitrogen): 46
Cell cycle S (PC3 cells [4]; 0.5 μM, Nitrogen): 33
Cell cycle G0/G1 (PC3 cells [4]; 5 μM, Air): 55
Cell cycle G2/M (PC3 cells [4]; 5 μM, Air): 32
Cell cycle S (PC3 cells [4]; 5 μM, Air): 12
Cell cycle G0/G1 (PC3 cells [4]; 5 μM, Nitrogen): 35
Cell cycle G2/M (PC3 cells [4]; 5 μM, Nitrogen): 26
Cell cycle S (PC3 cells [4]; 5 μM, Nitrogen): 38
Cell cycle G0/G1 (HT29 cells; 0.005 μM, Air): 52
Cell cycle G2/M (HT29 cells; 0.005 μM, Air): 35
Cell cycle S (HT29 cells; 0.005 μM, Air): 12
Cell cycle G0/G1 (HT29 cells; 0.005 μM, Nitrogen): 46
Cell cycle G2/M (HT29 cells; 0.005 μM, Nitrogen): 40
Cell cycle S (HT29 cells; 0.005 μM, Nitrogen): 14
Cell cycle G0/G1 (HT29 cells; 0.05 μM, Air): 50
Cell cycle G2/M (HT29 cells; 0.05 μM, Air): 35
Cell cycle S (HT29 cells; 0.05 μM, Air): 15
Cell cycle G0/G1 (HT29 cells; 0.05 μM, Nitrogen): 37
Cell cycle G2/M (HT29 cells; 0.05 μM, Nitrogen): 52
Cell cycle S (HT29 cells; 0.05 μM, Nitrogen): 11
Cell cycle G0/G1 (HT29 cells; 0.5 μM, Air): 48
Cell cycle G2/M (HT29 cells; 0.5 μM, Air): 37
Cell cycle S (HT29 cells; 0.5 μM, Air): 14
Cell cycle G0/G1 (HT29 cells; 0.5 μM, Nitrogen): 8
Cell cycle G2/M (HT29 cells; 0.5 μM, Nitrogen): 84
Cell cycle S (HT29 cells; 0.5 μM, Nitrogen): 8
Cell cycle G0/G1 (HT29 cells; 5 μM, Air): 47
Cell cycle G2/M (HT29 cells; 5 μM, Air): 39
Cell cycle S (HT29 cells; 5 μM, Air): 13
Cell cycle G0/G1 (HT29 cells; 5 μM, Nitrogen): 14
Cell cycle G2/M (HT29 cells; 5 μM, Nitrogen): 36
Cell cycle S (HT29 cells; 5 μM, Nitrogen): 50
IC50 (ACHN cells; read-out: IC50 ACHN Air): 62000 nM
IC50 (ACHN cells; read-out: IC50 ACHN Anoxia): 200 nM
fold reduction in exposure to the hypoxic side under 0% O2 relative to 5% O2 (HCT116 cells; 0% O2 vs 5% O2): Approximately 3 fold
fold more effective at inhibiting BrdU incorporation on the hypoxic side compared to the normoxic side (HCT116 cells; 5% O2): 10 fold
fold less compound required on the far (hypoxic) side compared to the exposed (normoxic) side (HCT116 cells; 20% O2): 5 fold
IC50 (HCT116 cells; HCT-116, read-out: IC50 (BrdU), Hypoxic side, 5% O2): 700 nM
IC50 (HCT116 cells; HCT-116, read-out: IC50 (BrdU), Hypoxic side, 20% O2): 2600 nM
IC50 (HCT116 cells; HCT-116, read-out: IC50 (BrdU), Normoxic side, 5% O2): 8000 nM
IC50 (HCT116 cells; HCT-116, read-out: IC50 (BrdU), Normoxic side, 20% O2): > 10000 nM
IC50 (HCT116 cells; HCT-116, read-out: IC50 (inhibit BrdU incorporation by 50%), Hypoxic side, 0% O2): ~1100 nM
IC50 (HCT116 cells; HCT-116, read-out: IC50 (BrdU), Normoxic side, 0% O2): ~1700 nM
IC90 (Irs1SF; read-out: IC90 Irs1SF Air): 20000 nM
IC90 (Irs1SF; read-out: IC90 Irs1SF N2): 20 nM
